Test results as given in article PMC5531531, “A synthetic cationic antimicrobial peptide inhibits inflammatory response and the NLRP3 inflammasome by neutralizing LPS and ATP” (PLoS ONE, 2017).
No end group written: not given here.

Experiments:
[1] = test system: E. coli-LPS-activated RAW 264.7 macrophages; test: TNF-α and IL-6 secretion ELISA, RAW 264.7; assay type: cell-based, mouse; conditions: RAW 264.7, E. coli LPS 0.1 μg/ml 24 h, Fig 1E
Experimental: The expression levels of IL-1β, IL-6 and TNF-α in the conditional medium, sera and lavage fluids were measured by ELISA as described in detail previously.
Fig 1 Effects of GW-A2 on the expression levels of inflammatory mediators. (A) RAW 264.7 macrophages were incubated for 30 min with or without GW-A2 or scrambled GW-A2, followed by incubation with or without 0.1 μg/ml of E. coli LPS or Salmonella LPS for 24 h. The levels of NO in the culture medium were measured by the Griess reaction. (B) RAW 264.7 macrophages were incubated for 30 min with or without GW-A2, followed by incubation with or without peptidoglycan (20 μg/ml), Pam3CSK4 (0.2 μg/ml) or capsular polysaccharide (3 μg/ml) for 24 h. The levels of NO in the culture medium were measured by the Griess reaction. […] The levels of iNOS and COX-2 were assessed by Western blotting and the histograms represent the expression levels compared to the LPS alone group obtained in three different experiments. […] The mRNA levels of iNOS and COX-2 were assessed by quantitative real-time PCR. […] The cell proliferation was measured by AlamarBlue® assay. The data are expressed as the mean ± SD of three independent experiments. *, ** and *** indicate significant differences, representing p < 0.05, p < 0.01 and p < 0.001, respectively compared to stimulation alone. # indicates significant differences, representing p < 0.05 compared to 2 μM of GW-A2 group.

[2] = test system: NF-κB activity in RAW-Blue cells; test: NF-κB reporter assay; assay type: cell-based; conditions: E. coli LPS 0.1 μg/ml 24 h, QUANTI-Blue, Fig 2D
Experimental: RAW-Blue™ cells (2 × 10^5 in 0.5 ml of medium) were seeded in 24-well plates and then incubated with LPS (0.1 μg/ml) in the presence or absence of AMPs for 24 h. The NF-κB activity was assayed by QUANTI-Blue™ (rep-qb1, InvivoGen) as described in detail previously.

THP-1 macrophages = assay type: cell-based, human
Experimental: RAW 264.7 cells or THP-1 macrophages (5 × 10^3 in 0.1 ml of medium) were seeded in 96-well plates and then incubated with various doses of AMP for 24 h. An AlamarBlue® assay (AbD Serotec, Oxford, UK) was used to determine the cytotoxicity of the test AMP. The procedure was conducted following the protocol described in the manufacturer’s instructions.

[3] = test system: E. coli-LPS-activated RAW 264.7 macrophages; test: MAPK, PKC-α/δ and IκB-α phosphorylation (Western blot); assay type: cell-based, mouse; conditions: 2 μM GW-A2 30 min, then E. coli LPS 0.1 μg/ml 0–60 min
Experimental: (§1) The protein expression levels of iNOS, COX-2, ERK1/2, JNK1/2, p38, IκB-α, PKC, caspase-1 and the phosphorylation levels of ERK1/2, JNK1/2, p38, PKC-α, PKC-δ, IκB-α were determined by Western blotting as described in detail previously.
Fig 2 Effects of GW-A2 on LPS-mediated signaling pathways. (A-C) RAW 264.7 macrophages were incubated for 30 min with or without 2 μM of GW-A2, followed by 0–60 min with or without 0.1 μg/ml of E. coli LPS. The phosphorylation levels of (A) ERK1/2, JNK1/2 and p38, (B) PKC-α and PKC-δ, and (C) I-κB-α were assayed by western blotting. (D) RAW-Blue^TM cells were incubated for 30 min with or without GW-A2, followed by 24 h with or without 0.1 μg/ml of E. coli LPS. The activation levels of NF-κB were measured by an NF-κB reporter assay. The data are expressed as the mean ± SD of three independent experiments. The western blotting results shown are a representative experiment of three independent experiments. * and ** indicate significant differences, representing p < 0.05 and p < 0.01, respectively compared to LPS alone.

[4] = test system: iNOS and COX-2 in E. coli-LPS-activated RAW 264.7 macrophages; test: iNOS and COX-2 expression (Western blot, quantitative real-time PCR); assay type: cell-based, mouse
Experimental: as §1
RAW 264.7 (2 × 10^6 in 2 ml of medium) were seeded in 6-cm dishes and then treated with or without LPS (0.1 μg/ml) in the absence or presence of AMP for 6 h. Total RNA was extracted from the treated cells by TRIzol reagent (Gibco, Grand Island, NY, USA) and the cDNA was prepared as described in detail previously. The mRNA expression levels of iNOS and COX-2 were measured by quantitative real-time PCR using the StepOne real-time PCR system (Applied Biosystems, Foster City, CA, USA). The primers used were: for mouse iNOS, forward 5- […]-3 and reverse 5-TGAACGAGGAGGGTGGTG-3; for mouse COX-2, forward 5-[…]-3 and reverse 5-[…]-3. The gene expression data are presented as the relative expression (LPS group as 100%) normalized to that of glyceraldehyde-3-phosphate dehydrogenase (GAPDH).

[5] = Western blot, E. coli LPS 0.1 μg/ml 24 h, Fig 1C
[6] = quantitative real-time PCR, E. coli LPS 0.1 μg/ml 6 h, Fig 1D

In the case of GAKYAKIIYNYLKKIANALW [GW-A2], the IL-6 secretion level [1] is reported as “reduced”, the TNF-α secretion level [1] is reported as “reduced” and the NF-κB transcriptional activity [2] is reported as “reduced by GW-A2 in a dose-dependent manner”. For the same sequence, the “Viability of THP-1 macrophages” value (THP-1 macrophages) was “did not reduce”, the “Phosphorylation levels of ERK1/2, JNK1/2 and p38” value ([3]; Fig 2A) was “reduced” and the “Phosphorylation levels of PKC-α and PKC-δ” value ([3]; Fig 2B) was “reduced”. For the same sequence, the “Phosphorylation levels of IκB-α” value ([3]; Fig 2C) was “inhibited”, the “COX-2 protein expression level” value [4, 5] was “inhibited” and the “iNOS protein expression level” value [4, 5] was “inhibited”. For the same sequence, the “Inhibitory activity on COX-2 protein expression, 4 μM compared to 2 μM” value ([4]; Western blot, 4 μM of GW-A2 compared to 2 μM) was “lower inhibitory activity”, the “COX-2 mRNA expression level” value [4, 6] was “inhibited” and the “iNOS mRNA expression level” value [4, 6] was “inhibited”.
